From patent publication US20230346770A1 (priority 2020, published 2023)

Assay: Phase 1 crossover drug-drug interaction study, plasma pharmacokinetics in healthy adults
Conditions: for median tmax: both periods
[1] = Treatment B (with clarithromycin), Period 1
[2] = Treatment B (with clarithromycin), Period 2

## CNCC[C@@](O)(c1cccc2ccccc12)[C@H](c1ccccc1)c1cc2cc(Br)ccc2nc1OC [M2]
Treatment A
  AUC72h higher in Period 2 as compared to Period 1: 41%
  AUC240h higher in Period 2 as compared to Period 1: 46%
  Cmax higher in Period 2 as compared to Period 1: 36%
  median tmax: 12.00 h
Treatment A (single dose 100 mg bedaquiline alone), Period 1, n=8
  Cmax (mean): 12.0 ng/mL
Treatment A (single dose 100 mg bedaquiline alone), Period 2, n=8
  Cmax (mean): 16.3 ng/mL
Treatment A, Period 1
  AUC72 h (mean): 637 ng·h/mL
  AUC240 h (mean): 1839 ng·h/mL
  M/P ratio AUC72 h (M2/bedaquiline, corrected for molecular weight): 0.0481
  M/P ratio AUC240 h (M2/bedaquiline, corrected for molecular weight): 0.110
  M/P ratio Cmax (M2/bedaquiline, corrected for molecular weight): 0.00936
  tmax (median): 12.00 h
Treatment A, Period 2
  AUC72 h (mean): 898 ng·h/mL
  AUC240 h (mean): 2691 ng·h/mL
  M/P ratio AUC72 h (M2/bedaquiline, corrected for molecular weight): 0.0670
  M/P ratio AUC240 h (M2/bedaquiline, corrected for molecular weight): 0.141
  M/P ratio Cmax (M2/bedaquiline, corrected for molecular weight): 0.0142
  tmax (median): 12.00 h
Treatment B
  AUC72h higher in Period 2 as compared to Period 1: 2.1 fold
  AUC240h higher in Period 2 as compared to Period 1: 2.1 fold
  Cmax higher in Period 2 as compared to Period 1: 2.2 fold
Treatment B (100 mg bedaquiline on Day 5 of clarithromycin 500 mg q12h Days 1-14), Period 1, n=8
  Cmax (mean): 4.66 ng/mL
Treatment B (100 mg bedaquiline on Day 5 of clarithromycin 500 mg q12h Days 1-14), Period 2, n=8
  Cmax (mean): 9.89 ng/mL
[1]
  AUC72 h (mean): 260 ng·h/mL
  AUC240 h (mean): 886 ng·h/mL
  M/P ratio AUC72 h (M2/bedaquiline, corrected for molecular weight): 0.0183
  M/P ratio AUC240 h (M2/bedaquiline, corrected for molecular weight): 0.0460
  M/P ratio Cmax (M2/bedaquiline, corrected for molecular weight): 0.0039
  tmax (median): 35.92 h
[2]
  AUC72 h (mean): 543 ng·h/mL
  AUC240 h (mean): 1884 ng·h/mL
  M/P ratio AUC72 h (M2/bedaquiline, corrected for molecular weight): 0.0347
  M/P ratio AUC240 h (M2/bedaquiline, corrected for molecular weight): 0.0881
  M/P ratio Cmax (M2/bedaquiline, corrected for molecular weight): 0.00798
  tmax (median): 23.90 h
Treatment B (with clarithromycin)
  median tmax: 23.91 h
Treatment B vs Treatment A
  reduction of AUC72h with clarithromycin co-administration: 51%
  reduction of AUC240h with clarithromycin co-administration: 42%
  reduction of Cmax with clarithromycin co-administration: 52%
  reduction of M/P ratio AUC72h with clarithromycin co-administration: 56%
  reduction of M/P ratio AUC240h with clarithromycin co-administration: 49%
  reduction of M/P ratio Cmax with clarithromycin co-administration: 52%
Both treatment groups
  time of maximum mean plasma concentration: 12 hours post-dose
Both treatments
  plasma concentration quantifiable until: 240 hours post-dose
Prior to the Period 2 single dose of bedaquiline (carry-over)
  pre-dose plasma concentration in Period 2 relative to Cmax after the Period 2 single dose: > 10%
